SMILES strings stand for the structures.

Assay [1] deals with cloned human P2Y1 receptors (Homo sapiens (Human), UniProt P47900). Description: Binding Assay B - Scintillation Proximity Assay (SPA) for P2Y1 binding, [33P] 2MeS-ADP. The settings on record: SPA, 0.3 nM [33P] 2MeS-ADP, Cheng-Prusoff; read-out: P2Y1 Ki (nM) using binding assay B. On the procedure: Binding Assay B—Scintillation Proximity Assay (SPA) for P2Y1 Binding
A SPA membrane binding assay was used to identify inhibitors of [^33P] […] Reactions were allowed to proceed to completion at room temperature for 1 hour followed by centrifugation of the plate for 5 min. About 40 μL of the aqueous solution was aspirated. Plates were sealed and the [^33P]
(Scintillation proximity formats need no separation of bound from free tracer.)

The test system of assay [2] is human platelet rich plasma (PRP). Description: ADP induced platelet aggregation assay. Conditions: Homo sapiens, Platelet, 5 min, read-out: PA IC50 (μM) @ 10 μM ADP, human PRP, 10 μM ADP, AUC at 5 minute.

cloned human P2Y1 receptors, sequence (P47900 whole entry): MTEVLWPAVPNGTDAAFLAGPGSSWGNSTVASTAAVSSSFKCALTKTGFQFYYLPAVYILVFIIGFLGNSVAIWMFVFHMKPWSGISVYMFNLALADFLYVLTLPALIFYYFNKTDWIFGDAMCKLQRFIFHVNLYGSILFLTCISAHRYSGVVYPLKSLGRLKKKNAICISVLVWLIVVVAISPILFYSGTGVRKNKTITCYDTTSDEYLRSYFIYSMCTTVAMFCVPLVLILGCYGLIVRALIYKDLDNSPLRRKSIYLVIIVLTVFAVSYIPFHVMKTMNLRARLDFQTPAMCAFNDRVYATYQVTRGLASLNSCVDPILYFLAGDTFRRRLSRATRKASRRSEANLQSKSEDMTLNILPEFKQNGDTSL

One may read the Ki as a dissociation constant, usually derived from enzyme kinetics or from competition with a known ligand. The term IC50 denotes the midpoint of a concentration-inhibition curve. Take `CC(C)c1nc(-c2c(F)cc(O)c3c2C(C)(C)CN3c2ccccc2NC(=O)Nc2ccc(OC(F)(F)F)cc2)co1` [Example 258, 1-(2-(5-Fluoro-7-hydroxy-4-(2-isopropyloxazol-4-yl)-3,3-dimethylindolin-1-yl)phenyl)-3-(4-(trifluoromethoxy)phenyl)urea]: the Ki in assay [1] amounted to 7.5 nM. Further, the IC50 in assay [2] was found to be 0.52 µM.

As to `CC1(C)CN(c2ccccc2NC(=O)Nc2ccc(OC(F)(F)F)cc2)c2c(O)c(F)cc(Cl)c21` [Example 65, 1-(2-(4-Chloro-6-fluoro-7-hydroxy-3,3-dimethylindolin-1-yl)phenyl)-3-(4-(trifluoromethoxy)phenyl)urea], the Ki in assay [1] was 14.1 nM. The IC50 in assay [2] is 0.83 µM.

Turning to `CC1(C)CN(c2ccccc2NC(=O)Nc2ccc(OC(F)(F)F)cc2)c2c(O)cc(F)c(-c3ccc(C#N)cc3)c21` [Example 248, 1-(2-(4-(4-Cyanophenyl)-5-fluoro-7-hydroxy-3,3-dimethylindolin-1-yl)phenyl)-3-(4-(trifluoromethoxy)phenyl)urea], the inhibition constant (Ki) in assay [1] was 7.4 nM. Moreover, in assay [2], the IC50 is 0.43 µM.

As to `Cc1nc(-c2c(F)cc(O)c3c2C(C)(C)CN3c2ccccc2NC(=O)Nc2ccc(OC(F)(F)F)cc2)co1` [Example 274, 1-(2-(5-Fluoro-7-hydroxy-3,3-dimethyl-4-(2-methyloxazol-4-yl)indolin-1-yl)phenyl)-3-(4-(trifluoromethoxy)phenyl)urea], in assay [1], the inhibitory constant (Ki) came to 7.4 nM. The half-inhibitory concentration (IC50) in assay [2] turned out to be 3.39 µM.

With `CCC1(CC)CN(c2ccccc2NC(=O)Nc2ccc(C(C)(C)C)cc2)c2c(O)ccc(F)c21` [Example 26, 1-(4-tert-Butylphenyl)-3-(2-(3,3-diethyl-4-fluoro-7-hydroxyindolin-1-yl)phenyl)urea], in assay [1], the Ki was found to be 5.1 nM. Also, the IC50 in assay [2] came to 0.98 µM.

As for `CC1(C)CN(c2ccccc2NC(=O)Nc2csc(Cl)n2)c2c(O)cc(F)c(-c3nc4cc(F)ccc4s3)c21` [Example 181, 1-(2-Chlorothiazol-4-yl)-3-(2-(5-fluoro-4-(5-fluorobenzo[d]thiazol-2-yl)-7-hydroxy-3,3-dimethylindolin-1-yl)phenyl)urea], in assay [1], the Ki turned out to be 9.7 nM. Besides, the concentration for half-maximal inhibition (IC50) in assay [2] amounted to 0.49 µM.

Regarding `CC1(C)CN(c2ccccc2NC(=O)Nc2nc3ccc(Cl)cc3s2)c2c(O)cc(F)c(-c3nc4cc(F)ccc4s3)c21` [Example 154, 1-(6-Chlorobenzo[d]thiazol-2-yl)-3-(2-(5-fluoro-4-(5-fluorobenzo[d]thiazol-2-yl)-7-hydroxy-3,3-dimethylindolin-1-yl)phenyl)urea], the Ki in assay [1] is 22.5 nM. The half-inhibitory concentration (IC50) in assay [2] turned out to be 0.35 µM.

With `CC1(C)CN(c2ccccc2NC(=O)Nc2nc3ccc(Cl)nc3s2)c2c(O)ccc(-c3ccc(F)cc3)c21` [Example 209, 1-(5-Chlorothiazolo[5,4-b]pyridin-2-yl)-3-(2-(4-(4-fluorophenyl)-7-hydroxy-3,3-dimethylindolin-1-yl)phenyl)urea], in assay [1], the Ki worked out at 13 nM. Also, the IC50 in assay [2] came out at 0.23 µM.

`Cc1cccc2nc(-c3ccc(O)c4c3C(C)(C)CN4c3ccccc3NC(=O)Nc3ccc(OC(F)(F)F)cc3)oc12` [Example 93, 1-(2-(7-Hydroxy-3,3-dimethyl-4-(7-methylbenzo[d]oxazol-2-yl)indolin-1-yl)phenyl)-3-(4-(trifluoromethoxy)phenyl)urea]: the inhibitory constant (Ki) in assay [1] is 52 nM. In addition, the IC50 in assay [2] was 0.8 µM.

Turning to `CC1(C)CN(c2ccccc2NC(=O)Nc2ccc(C(F)(F)F)cc2)c2c(O)ccc(C(F)(F)F)c21` [Example 17, 1-(2-(7-Hydroxy-3,3-dimethyl-4-(trifluoromethyl)indolin-1-yl)phenyl)-3-(4-(trifluoro-methyl)phenyl)urea], in assay [1], the inhibition constant (Ki) came to 16.4 nM. Besides, the concentration for half-maximal inhibition (IC50) in assay [2] came to 0.27 µM.

For `CCC1(CC)CN(c2ccccc2NC(=O)Nc2nc3ccc(C)cc3s2)c2c(O)cccc21` [Example 10, 1-(2-(3,3-Diethyl-7-hydroxyindolin-1-yl)phenyl)-3-(6-methylbenzo[d]thiazol-2-yl)urea], the Ki in assay [1] was determined as 7.6 nM. Besides, the concentration for half-maximal inhibition (IC50) in assay [2] was determined as 0.54 µM.

On to `CC(C)(C)CN1CCC(NC(=O)Nc2ccccc2N2CC(C)(C)c3c(-c4ccc(C(F)(F)F)cc4)c(F)cc(O)c32)CC1` [Example 246, 1-(2-(5-Fluoro-7-hydroxy-3,3-dimethyl-4-(4-(trifluoromethyl)phenyl)indolin-1-yl)phenyl)-3-(1-neopentylpiperidin-4-yl)urea], for which the Ki in assay [1] amounted to 14.2 nM. Besides, the half-inhibitory concentration (IC50) in assay [2] came to 0.25 µM.

For the compound `Cc1c(-c2c(F)cc(O)c3c2C(C)(C)CN3c2ccccc2NC(=O)Nc2ccc(OC(F)(F)F)cc2)cnn1-c1ccccc1` [Example 186, 1-(2-(5-Fluoro-7-hydroxy-3,3-dimethyl-4-(5-methyl-1-phenyl-1H-pyrazol-4-yl)indolin-1-yl)phenyl)-3-(4-(trifluoromethoxy)phenyl)urea], the inhibition constant Ki in assay [1] worked out at 17.6 nM. The IC50 in assay [2] was found to be 0.67 µM.

As for `CC1(C)CN(c2ccccc2NC(=O)Nc2ccc(OC(F)(F)F)cc2)c2c(O)cc(F)c(-c3cccc(Cl)c3)c21` [Example 235, 1-(2-(4-(3-Chlorophenyl)-5-fluoro-7-hydroxy-3,3-dimethylindolin-1-yl)phenyl)-3-(4-(trifluoromethoxy)phenyl)urea], in assay [1], the Ki was determined as 19.5 nM. In addition, in assay [2], the IC50 was found to be 0.23 µM.

For `CC1(C)CN(c2ccccc2NC(=O)Nc2ccc(OC(F)(F)F)cc2)c2c(O)ccc(C#N)c21` [Example 47, 1-(2-(4-Cyano-7-hydroxy-3,3-dimethylindolin-1-yl)phenyl)-3-(4-(trifluoromethoxy)phenyl)urea], in assay [1], the inhibition constant (Ki) was found to be 18.6 nM. The IC50 in assay [2] is 3.35 µM.

Consider `CC1(C)CN(c2ccccc2NC(=O)Nc2ccc(OC(F)(F)F)cc2)c2c(O)ccc(Cl)c21` [Example 56, 1-(2-(4-Chloro-7-hydroxy-3,3-dimethylindolin-1-yl)phenyl)-3-(4-(trifluoromethoxy)phenyl)urea], for which the inhibition constant Ki in assay [1] came to 8.7 nM. Further, the concentration for half-maximal inhibition (IC50) in assay [2] worked out at 0.87 µM.

Turning to `CC1(C)CN(c2ccccc2NC(=O)Nc2nc3ccc(F)nc3s2)c2c(O)cc(F)c(-c3nc4cc(F)ccc4s3)c21` [Example 182, 1-(2-(5-Fluoro-4-(5-fluorobenzo[d]thiazol-2-yl)-7-hydroxy-3,3-dimethylindolin-1-yl)phenyl)-3-(5-fluorothiazolo[5,4-b]pyridin-2-yl)urea], the Ki in assay [1] came out at 15.7 nM. In addition, the 50% inhibitory concentration (IC50) in assay [2] was determined as 0.51 µM.

Regarding `Cn1c(-c2ccc(O)c3c2C(C)(C)CN3c2ccccc2NC(=O)Nc2ccc(OC(F)(F)F)cc2)nc2ccccc21` [Example 88, 1-(2-(7-Hydroxy-3,3-dimethyl-4-(1-methyl-1H-benzo[d]imidazol-2-yl)indolin-1-yl)phenyl)-3-(4-(trifluoromethoxy)phenyl)urea], the inhibition constant Ki in assay [1] was 39.7 nM. For the same compound, the IC50 in assay [2] is 4.15 µM.

Turning to `CN(C)Cc1cccc(-c2c(F)cc(O)c3c2C(C)(C)CN3c2ccccc2NC(=O)Nc2ccc(OC(F)(F)F)cc2)c1` [Example 249, 1-(2-(4-(3-((Dimethylamino)methyl)phenyl)-5-fluoro-7-hydroxy-3,3-dimethylindolin-1-yl)phenyl)-3-(4-(trifluoromethoxy)phenyl)urea], the Ki in assay [1] was 12.2 nM. In assay [2], the IC50 stood at 0.7 µM.

With `CC1(C)CN(c2ccccc2NC(=O)NC2CCN(CC(F)(F)F)CC2)c2c(O)ccc(C(F)(F)F)c21` [Example 3, 1-(2-(7-Hydroxy-3,3-dimethyl-4-(trifluoromethyl)indolin-1-yl)phenyl)-3-(1-(2,2,2-trifluoroethyl)piperidin-4-yl)urea], in assay [1], the Ki worked out at 4.9 nM. Moreover, the IC50 in assay [2] stood at 3.1 µM.

With `Cc1nc(NC(=O)Nc2ccccc2N2CC(C)(C)c3c(C(F)(F)F)ccc(O)c32)cs1` [Example 15, 1-(2-(7-Hydroxy-3,3-dimethyl-4-(trifluoromethyl)indolin-1-yl)phenyl)-3-(2-methylthiazol-4-yl)urea], the Ki in assay [1] was found to be 7.3 nM. Further, the IC50 in assay [2] worked out at 0.95 µM.

For the compound `CC1(C)CN(c2cccc(F)c2NC(=O)Nc2ccc(F)cc2F)c2c(O)ccc(C(F)(F)F)c21` [Example 61, 1-(2,4-Difluorophenyl)-3-(2-fluoro-6-(7-hydroxy-3,3-dimethyl-4-(trifluoromethyl)indolin-1-yl)phenyl)urea], in assay [1], the Ki worked out at 5.2 nM. In addition, the IC50 in assay [2] was 0.54 µM.

`CCC1(CC)CN(c2ccccc2NC(=O)Nc2ccc(OC(F)(F)F)cc2)c2c(O)ccc(C#N)c21` [Example 43, 1-(2-(3,3-Diethyl-4-cyano-7-hydroxyindolin-1-yl)phenyl)-3-(4-(trifluoromethoxy)phenyl)urea]: in assay [1], the Ki came to 7.8 nM. Moreover, the 50% inhibitory concentration (IC50) in assay [2] is 0.47 µM.

Turning to `CC1(C)CN(c2ccccc2NC(=O)Nc2csc(Cl)n2)c2c(O)cc(F)c(-c3ccc(C(F)(F)F)cc3)c21` [Example 239, 1-(2-Chlorothiazol-4-yl)-3-(2-(5-fluoro-7-hydroxy-3,3-dimethyl-4-(4-(trifluoromethyl)phenyl)indolin-1-yl)phenyl)urea], the Ki in assay [1] was 11.3 nM. Moreover, the half-maximal inhibitory concentration (IC50) in assay [2] is 0.05 µM.

In the case of `CC1(C)CN(c2ccccc2NC(=O)Nc2csc(Cl)n2)c2c(O)ccc(Br)c21` [Example 6, 1-(2-(4-Bromo-7-hydroxy-3,3-dimethylindolin-1-yl)phenyl)-3-(2-chlorothiazol-4-yl)urea], the Ki in assay [1] was determined as 24.4 nM. Moreover, the IC50 in assay [2] turned out to be 0.31 µM.

As for `CCC1(CC)CN(c2ccccc2NC(=O)Nc2ccc(OC(F)(F)F)cc2)c2c(O)ccc(Cl)c21` [Example 51, 1-(2-(4-Chloro-3,3-diethyl-7-hydroxyindolin-1-yl)phenyl)-3-(4-(trifluoromethoxy)phenyl)urea], the inhibition constant Ki in assay [1] was found to be 14.1 nM. In addition, the half-maximal inhibitory concentration (IC50) in assay [2] was determined as 0.41 µM.

Regarding `CC1(C)CN(c2ccccc2NC(=O)Nc2nc3ccc(F)cc3s2)c2c(O)ccc(Br)c21` [Example 1, 1-(2-(4-Bromo-7-hydroxy-3,3-dimethylindolin-1-yl)phenyl)-3-(6-fluorobenzo[d]thiazol-2-yl)urea], the Ki in assay [1] was 10.8 nM. Further, the IC50 in assay [2] came to 0.47 µM.

Source of the values: patent US9540323B2 (BRISTOL-MYERS SQUIBB COMPANY, priority 2012, dated 2017).
